Test results from US20220354844A1, “METHODS OF TREATING METABOLIC DISEASES WITH FUSED BICYCLIC PYRAZOLES” (Belite Bio, Inc, priority 2017, published 2022).
“And” between values parts separate entries of the source, which are not always exact repeats. Equal values may be shown once.

Tests used:
[1] = tested on: Subjects with NAFLD or NASH; test: Treatment of NAFLD and NASH in humans; format: in vivo, human; details: 50 or 100 mg/day for 6 months
Experimental: Subjects with NAFLD or NASH are treated with doses of either 50 or 100 mg/day of compound 1 or 2 for 6 months. Subjects are permitted their usual other medications (e.g. antidiabetic medications such as metformin or […]) but not glitazones, PPAR agonists, OCA, or similar medications. The subjects are assessed before the study, and at intervals during the study, such as every 4 weeks during the study and 4 weeks after the last dose of compound 1 or 2, for safety and pharmacodynamic evaluations.
MRIs of the subjects' livers are taken every 4 weeks during the study and 4 weeks after completion of compound 1 or 2 dosing, to determine hepatic fat; and liver biopsies are taken before the study (to establish the diagnosis) and 4 weeks after completion of compound 1 or 2 dosing. At each visit, after a 12-hour fast, blood is drawn and urine collected; and a standard metabolic panel, complete blood count, and standard urinalysis are performed. Blood is analyzed for total cholesterol, HDL-C, LDL-C, VLDL-C, TGs, apoB, and liver transaminases. The subjects also maintain health diaries, which are reviewed at each visit.

[2] = Compound 1 single dose mouse PK study; format: in vivo, male CD-1 mice
Experimental: A pharmacokinetic study of Compound 1 following a single intravenous or oral dose administration to male CD-1 mice was conducted, the results of which are found in Table 4 and FIGS. 15-20.

[3] = Compound 1 single dose non-human primate PK study; format: in vivo, Cynomolgus Macaques; details: NHP; for Vd: read-out: Vss
Experimental: A pharmacokinetic study of Compound 1 following a single intravenous or oral dose administration to non-human primates (Cynomolgus Macaques) was conducted, the results of which are found in Table 2 and FIGS. 1-8.

[4] = male, CD-1, plasma, single iv dose 2 mg/kg
[5] = male, CD-1, plasma, single po dose 5 mg/kg
[6] = single iv dose 1 mg/kg, individual animals, 1 mg/kg
[7] = single po dose 5 mg/kg, individual animals, 5 mg/kg
[8] = cynomolgus monkey, plasma, iv, 1 mg/kg, single iv dose 1 mg/kg, Mean of the 3 animals
[9] = cynomolgus monkey, plasma, iv, 1 mg/kg, single iv dose 1 mg/kg, individual animals
[10] = cynomolgus monkey, plasma, po, 5 mg/kg, single po dose 5 mg/kg, Mean of the 3 animals

CC(=O)N1CCc2c(C(=O)N3CCC(c4ccc(F)c(F)c4C(F)(F)F)CC3)n[nH]c2C1 [Compound 1, 1-(3-(4-(3,4-difluoro-2-(trifluoromethyl)phenyl)piperidine-1-carbonyl)-1,4,5,7-tetrahydro-6H-pyrazolo[3,4-c]pyridin-6-yl)ethan-1-one]
improvement in their disease, as manifested by MRI and liver biopsy [1]: dose-related improvement
AUC(0-inf) [2, 4]: 2460 ng·h/mL
AUC(0-t) [2, 4]: 2400 ng·h/mL
MRT inf [2, 4]: 2.5 h
MRT last [2, 4]: 2.2 h
clearance [2, 4]: 13.5 mL/min/kg
half-life [2, 4]: 126 min
Cmax ([2]; male, CD-1, plasma, single iv dose 2 mg/kg, maximum observed concentration at first time point): 1460 ng/mL
Vd ([2]; male, CD-1, plasma, single iv dose 2 mg/kg, read-out: Vss): 2.02 L/kg
AUC(0-inf) [2, 5]: 1810 ng·h/mL
AUC(0-t) [2, 5]: 1800 ng·h/mL
Cmax [2, 5]: 278 ng/mL
MRT inf [2, 5]: 5 h
MRT last [2, 5]: 4.9 h
Tmax [2, 5]: 15 min
half-life [2, 5]: 174 min
Tmax ([2]; male, CD-1, single iv dose 2 mg/kg, first plasma collection time): 4.8 min
F ([2]; single po dose 5 mg/kg): 29.4%
AUC inf [3, 6]: 5217 hr.ng/m1 and 3761 hr.ng/m1
AUCLAST [3, 6]: 5165 ng·h/mL and 3731 ng·h/mL
Cl [3, 6]: 192 mL/h/kg and 266 mL/h/kg
Cmax [3, 6]: 968 ng/mL and 704 ng/mL
MRT last [3, 6]: 6.8 h and 6.7 h
MRTinf [3, 6]: 7.3 h and 7.1 h
Vss [3, 6]: 1399 mL/kg and 1886 mL/kg
t1/2 [3, 6]: 7.8 h and 7.4 h
F ([3]; single po dose 5 mg/kg, Mean of the 3 animals): 18.7%
AUC inf [3, 7]: 3601 hr.ng/m1 and 3918 hr.ng/m1
AUCLAST [3, 7]: 3525 ng·h/mL and 3852 ng·h/mL
Cmax [3, 7]: 363 ng/mL and 369 ng/mL
F [3, 7]: 21.6% and 16.5%
MRT last [3, 7]: 10.0 h and 10.3 h
MRTinf [3, 7]: 11.1 h
Tmax [3, 7]: 120 min
t1/2 [3, 7]: 8.7 h and 8.1 h
AUC(0-inf) [3, 8]: 4370 ng·h/mL
AUC(0-t) [3, 8]: 4340 ng·h/mL
MRT inf [3, 8]: 6.9 h
clearance [3, 8]: 3.88 mL/min/kg
half-life [3, 8]: 462 min
Tmax ([3]; cynomolgus monkey, plasma, iv, 1 mg/kg, single iv dose 1 mg/kg, Mean of the 3 animals, first plasma collection time listed as Tmax, read-out: Tmax): 16.2 min
Cmax ([3]; cynomolgus monkey, plasma, iv, 1 mg/kg, single iv dose 1 mg/kg, Mean of the 3 animals, read-out: Cmax): 881 ng/mL
MRT last ([3]; cynomolgus monkey, plasma, iv, 1 mg/kg, single iv dose 1 mg/kg, Mean of the 3 animals, read-out: MRT last): 6.4 h
Vd [3, 8]: 1.6 L/kg
AUC(0-inf) [3, 9]: 4140 ng·h/mL
AUC(0-t) [3, 9]: 4110 ng·h/mL
MRT inf [3, 9]: 6.3 h
clearance [3, 9]: 4.02 mL/min/kg
half-life [3, 9]: 468 min
Cmax ([3]; cynomolgus monkey, plasma, iv, 1 mg/kg, single iv dose 1 mg/kg, individual animals, read-out: Cmax): 970 ng/mL
MRT last ([3]; cynomolgus monkey, plasma, iv, 1 mg/kg, single iv dose 1 mg/kg, individual animals, read-out: MRT last): 5.9 h
Vd [3, 9]: 1.52 L/kg
AUC(0-inf) [3, 10]: 4080 ng·h/mL
AUC(0-t) [3, 10]: 3990 ng·h/mL
MRT inf [3, 10]: 11.3 h
half-life [3, 10]: 510 min
